Reference: publication PMC6600181, “Reversal of MK-801-Induced Disruptions in Social Interactions and Working Memory with Simultaneous Administration of LY487379 and VU152100 in Mice” (International Journal of Molecular Sciences, 2019)

Tests used:
MK-801-treated mice [1] = experiment: Novel object recognition test (MK-801-induced disruptions); assay type: in vivo, mice (male CD1); details: for treatment of deficits in novel object recognition induced by prolonged MK-801: compounds acutely 24 h later, 30 min before test, LY487379 0.1, 0.5, 1 mg/kg, VU152100 0.1, 0.25, 1 mg/kg; for prevention of MK-801-induced disruptions in object recognition: acute, 30 min before acute MK-801
Procedure: (§1) Schedules of administration are presented graphically in Figure 1. […] Different vehicles were used throughout the study: (1) 0.9% NaCl, (2) 10% Tween 80 or (3) 10% Tween 80 containing 2% DMSO. Vehicles were administered to all animals (e.g., control mice, MK-801-treated mice) in the same schedule as drugs were administered to the drug-treated appropriate groups of mice.
(§2) Male CD1 mice (Charles River, Germany) weighing 20–25 g at the time of arrival were used in behavioural experiments. Animals were kept in standard laboratory cages T3 (265 × 420 × 180 mm, with an area of 825 cm^2), grouped at 10 mice per cage. Animals were kept under standard laboratory conditions (12:12 light:dark cycle, 21–22 °C) with free access to food and water. Animal welfare has been regularly controlled by a veterinarian and animal welfare committee. After 3–4 weeks of acclimatization and handling, the experiments began. Experimental groups consisted of 8 to 10 animals, depending on the procedure. Drugs were administered intraperitoneally (i.p.) at a volume of 10 mL/kg. Experimental assessments were performed by an observer who was blinded to treatment conditions. All procedures described herein were conducted in accordance with the European Communities Council Directive of 22 September 2010 (2010/63/EU) and Polish legislation acts concerning animal experimentation and were approved by the II Local Ethics Committee by the Institute of Pharmacology, Polish Academy of Sciences in Krakow (18/2019, 21.01.2019).
This procedure was adapted from Nilsson et al. and performed as described in a variety of our previous papers. Habituation, training and test trials were performed in a black plastic rectangular arena (40 × 30 × 35 cm) illuminated with a light intensity of 335 lux. During the habituation trial (2 consecutive days), each animal was allowed to explore the arena for 10 min. The next day, during the training trial (T1), mice were placed in the arena and were presented with two identical objects (red glass cylinder; 6.5 cm in diameter and 4.5 cm high) for 5 min. After 1 h, animals were placed back into the arena for a 5 min test trial, during which one of the previously presented familiar objects was replaced with a novel object (a transparent glass elongated sphere-like object with an orange cap; 5.5 cm in diameter and 8.5 cm high). Time spent exploring (i.e., sniffing or touching) the familiar (Tfamiliar) and novel (Tnovel) objects was measured by a trained observer, and the recognition index [%] was calculated for each mouse [(Tnovel – Tfamiliar)/(Tfamiliar + Tnovel)] * 100.

MK-801-treated mice [2] = experiment: Social interaction test (MK-801-induced disruptions); assay type: in vivo, mice (male CD1); details: for treatment of deficits in social interactions induced by prolonged MK-801: compounds acutely 24 h later, 30 min before test, LY487379 0.25, 0.5, 1 mg/kg, VU152100 0.1, 0.25, 5 mg/kg; for prevention of MK-801-induced deficits in social interactions: acute, 30 min before acute MK-801
Procedure: as §1, §2
This procedure was adapted from de Moura Linck et al. and performed as described in our previous papers. Habituation and test trials were performed in a black plastic rectangular arena (40 × 30 × 35 cm) illuminated with a light intensity of 335 lux. During the habituation trial (2 consecutive days), each animal was allowed to explore the arena for 10 min. The test trial was conducted the following day, during which body-weight-matched mice (± 10% difference) from two different cages were placed into the arena for 10 min. Social interactions between the two mice were determined based on the total time spent participating in social behaviours, such as sniffing, genital investigation and chasing.

MK-801-treated mice [3] = system: MK-801-treated mice; parameters: method as in PMID 30054675; details: acute MK-801 model; cited from earlier work
MK-801-treated mice [4] = system: MK-801-treated mice; parameters: method as in PMID 30054675; details: acute MK-801 model; cited from earlier work; remark: listed apart in the source

SMILES | treatment of deficits in novel object recognition induced by prolonged MK-801 (MK-801-treated mice [1]; MK-801 0.3 mg/kg for 7 days) | effect on learning abilities when given alone (MK-801-treated mice [1]; compound alone, without MK-801) | prevention of MK-801-induced disruptions in object recognition (MK-801-treated mice [1]; dose 0.5 mg/kg i.p.) | prevention of MK-801-induced disruptions in object recognition (MK-801-treated mice [1]; doses of 1 and 3 mg/kg i.p.) | treatment of deficits in social interactions induced by prolonged MK-801 (MK-801-treated mice [2]; MK-801 0.3 mg/kg for 7 days) | effect on social behaviour when given alone (MK-801-treated mice [2]; compound alone, without MK-801) | prevention of MK-801-induced deficits in social interactions (MK-801-treated mice [2]; dose 0.5 mg/kg i.p.) | prevention of MK-801-induced deficits in social interactions (MK-801-treated mice [2]; doses of 1 and 3 mg/kg i.p.) | induction of deficits in novel object recognition (MK-801-treated mice [1]; MK-801 0.3 mg/kg for 7 days, observed 24 h after the last administration) | induction of deficits in social interactions (MK-801-treated mice [2]; MK-801 0.3 mg/kg for 7 days, observed 24 h after the last injection) | sub-effective dose in social interaction (MK-801-treated mice [3]) | sub-effective dose in novel object recognition (MK-801-treated mice [4])
COc1ccccc1Oc1ccc(N(Cc2cccnc2)S(=O)(=O)CC(F)(F)F)cc1 [LY487379] | treated the MK-801-induced deficits at all administered doses | no effect on learning abilities | ineffective | prevented MK-801-induced disruptions in object recognition | treated MK-801-induced deficits at all administered doses | no effect on social behaviour | ineffective | prevented the MK-801-induced deficits |  |  |  | 
C[C@]12N[C@H](Cc3ccccc31)c1ccccc12 [MK-801] |  |  |  |  |  |  |  |  | induced deficits in the novel object recognition paradigm | induced deficits in social interactions |  | 
COc1ccc(CNC(=O)c2sc3nc(C)cc(C)c3c2N)cc1 [VU152100] | treated the MK-801-induced deficits at all administered doses |  |  |  | treated MK-801-induced deficits at all administered doses |  |  |  |  |  | 0.5 mg/kg | 0.25 mg/kg
